“Also recorded” adds a separate entry of the source.

Data set [1] concerns MMR activity (ATPase-dependent). Conditions: in vitro assays; Galio 1999, Allen 1997, Bjornson 2000; cited from earlier work.
In another data set the test system is human HEK293 cells. Kind of data set: Toxicity of DMA to 293 cells in culture. Type of data set: cell-based. Conditions: 14 to 17 days. How it is done: (§1) Briefly, 10^5 cells were grown in control medium or 250 μM DMA, a concentration that is found to be non-toxic, for 14 to 17 days. Cells are then harvested and genomic DNA isolated using the salting out method (Nicolaides, N. C. et al. (1991) Mol. Cell. Biol. 11:6166-6176.).

Data set [2] deals with Arabidopsis thaliana. Kind of data set: New phenotypes in offspring of chemically exposed Arabidopsis plants. Type of data set: in vivo. Conditions: for offspring with small light green appearance (altered phenotype): offspring grown in standard soil conditions for 17 days, FIG. 6; for phenotypically distinct plants among offspring at day 10: offspring of plants grown from seeds on 2 mM DMA or 250 μM EMS for 10 days. As for the experimental part: Next, 50 seeds were plated in two 150 mm dishes containing 2 mM DMA, 250 μM EMS or no drug. Seeds were grown for 10 days and then 10 plants from each plate were transferred to soil. All plants appeared to be similar in color and height. Plants were grown at room temperature with daily cycles of 18 hr light and 6 hr dark. After 45 days seeds are harvested from siliques and stored in a desiccator at 4° C. for 72 hours. Seeds are then sterilized and 100 seeds from each plant is sown directly into water-saturated soil and grown at room temperature with daily cycles of 18 hr light and 6 hr dark. […] These 7 altered plants were light green in color and appeared to grow slower. […] DMA-exposed plants produced offspring that were yellow in appearance in contrast to dark green, which is always found in wild-type plants. In addition, the yellow plants were also shorter. After 30 days, most wild-type plants produced flowers and siliques, while the 7 mutants just began flowering. After 45 days, control plants were harvested while mutant plants were harvested 10 to 15 days later.

The subject of data set [3] is mismatch repair (MMR) in H36 pCAR-OF cells. Type of data set: cell-based, murine. Conditions: for generation of β-galactosidase positive cells / MI and shifting of the polynucleotide tract in the pCAR-OF reporter: H36 pCAR-OF cells.
Data set [4] has as its system human HEK293 cells (BAT26 microsatellite marker). Kind of data set: BAT26 microsatellite instability of endogenous loci in 293 cells (PCR, cloning, sequencing). Type of data set: cell-based. How it is done: as §1
Various amounts of test DNAs from HCT116 (a human colon epithelial cell line) and 293 were first used to determine the sensitivity of our microsatellite test. The BAT26 alleles are known to be heterogeneous between these two cell lines and the products migrate at different molecular weights (Nicolaides personal observation). DNAs were diluted by limiting dilution to determine the level of sensitivity of the assay. DNAs were PCR amplified using the BAT26F: 5′-[…]-3′ (SEQ ID NO:43) and the BAT26R: 5′-[…]-3′ (SEQ ID NO:44) primers in buffers as described (Nicolaides, N. C. et al. (1995) Genomics 30:195-206). Briefly 1 pg to 100 ngs of DNA were amplified using the following conditions: 94° C. for 30 sec, 58° C. for 30 sec, 72° C. for 30 sec for 30 cycles. […]
To measure for microsatellite stability in 293 cells grown with or without DMA, 0.1 ngs of DNA from DMA-treated or control 293 cells were amplified using the reaction conditions above. […] Fifty bacterial colonies were analyzed for BAT26 structure by directly adding an aliquot of live bacteria to the PCR mix. […]

The conditions of data set [5]: at high concentrations; Myers et al. 1988; cited from earlier work.
The subject of data set [6] is Pichia yeast containing GUS-OF reporter. Put plainly: Pichia yeast pGUS-OF MMR-sensitive reporter assay (X-glu plates). Type of data set: cell-based. The conditions noted are these: GUS-OF Pichia incubated with 300 μM chemical for 48 hours. How it is done:
Briefly, the GUS-OF and GUS-IF gene, which contains a polyA repeat at the N-terminus of the protein was subcloned from the pCR-IF-GUS and pCR-OF-GUS plasmids into the EcoRI site of the pGP vector, which is a consitutively expressed yeast vector containing a zeocin resistance gene as selectable marker. pGP-GUS-IF and pGP-GUS-OF vectors were electroporated into competent Pichia cells using standard methods known by those skilled in the art. Cells were plated on YPD agar (10 g/L yeast extract; 20 g/L peptone; 2% glucose; 1.5% bactoagar) plates containing 100 μg/ml zeocin. Recombinant yeast are then analyzed for GUS expression/function by replica plating on YPD agar plates containing 100 μg/ml zeocin plus 1 mg/ml X-glu (5-bromo-4-chloro-3-indoyl-beta-D-glucuronide sodium salt) and grown at 30° C. for 16 hours. […] None of the yeast containing the GUS-OF turned blue in the presence of the X-glu substrate under normal growth conditions.
After incubation, yeast were plated on YPD-ZEO-X-GLU plates and grown at 30° C. for 16 hours.

In data set [7] the test system is Arabidopsis thaliana. Kind of data set: Toxicity curve on Arabidopsis seeds on MS phytagar plates (root and shoot formation). The conditions noted are these: for Dead: non-germinated seeds. Type of data set: in vivo. How it is done: Briefly, AT seeds were sterilized with straight commercial bleach and 100 seeds were plated in 100 mm Murashige and Skoog (MS) phytagar (Life Technology) plates with increasing amounts of DMA (ranging from 100 μm to 50 mM). A similar amount of seeds were plated on MS phytagar only or in MS phytagar with increasing amounts of EMS (1001M to 50 mM), a mutagen commonly used to mutate AT seeds (McCallum, C. M. et al. (2000) Nat. Biotechnol. 18:455-457). Plates were grown in a temperature-controlled, fluorescent-lighted humidifier (Percival Growth Chamber) for 10 days. After 10 days, seeds were counted to determine toxicity levels for each compound. […] Plantlets that were identical to untreated seeds were scored healthy. Seeds with stunted root or shoot formation were scored intermediate (inter). Non-germinated seeds were scored dead.

For a further data set, the system named is MMR defective cell lines. The conditions noted are these: mammalian cells; Chen et al. 2000; cited from earlier work.
Setting [8] is: Arabidopsis thaliana, in vivo, 10 days, 2.5 mM.
[9] abbreviates: Arabidopsis thaliana, in vivo, 10 days, 5 mM.
Where [10] appears, read: Arabidopsis thaliana, in vivo, 10 days, 10 mM.
Setting [11] is: Arabidopsis thaliana, in vivo, 10 days, 12.5 mM.
The mark [12] stands for this setting: Arabidopsis thaliana, in vivo, 10 days, 25 mM.
Where [13] appears, read: Arabidopsis thaliana, in vivo, 10 days, 50 mM.

On to `Nc1ncnc2c1ncn2[C@@H]1O[C@H](COP(=O)(O)OP(=O)(O)NP(=O)(O)O)[C@@H](O)[C@H]1O` [AMP-PNP], for which the “effect on MMR activity in vitro” value in [1] is reported as “block the MMR activity”.

With `Nc1ncnc2c1ncn2[C@@H]1O[C@H](COP(=O)(O)OP(=O)(O)OP(O)(O)=S)[C@@H](O)[C@H]1O` [ATP[gamma]S], the “effect on MMR activity in vitro” value in data set [1] is listed as “block the MMR activity”.

In the case of `Cc1c2ccccc2c(C)c2ccccc12` [DMA, 9,10-dimethylanthracene], the “concentration found to be non-toxic” value in the data set on human HEK293 cells came out at 250 µM. The “offspring with small light green appearance (altered phenotype)” value in the data set with Arabidopsis thaliana [2] was “Six”. In addition, the “phenotypically distinct plants among offspring at day 10” value in the data set on Arabidopsis thaliana [2] was 7 out of 118. The “generation of β-galactosidase positive cells / MI and shifting of the polynucleotide tract in the pCAR-OF reporter” value in data set [3] is listed as “produces b-gal positive H36 pCAR-OF cells”. Also, the “cells positive for b-gal” value in data set [3] (H36 pCAR-OF cells grown in the presence of DMA, FIG. 3) was “Approximately 3%”. Besides, the “BAT26 polyA repeat alleles by sequence analysis of clones” value in data set [4] (293 cells treated with DMA, control clone homozygous for 26 nt polyA repeat) was “multiple alleles ranging from the wild-type with 26 polyA repeat to shorter alleles (24 polyA repeat) and larger alleles (28 polyA repeat)”. In addition, in [4] (293 cells, 250 μM DMA, 14-17 days, PCR and gel electrophoresis), the “altered BAT26 alleles (microsatellite instability)” value was “showed the presence of an altered allele; also recorded: presence of a new allele in cells treated with DMA”. In addition, in data set [5], the mutagenic activity result is given as “acts as a potent weak mutagen”. The “blue subclones (functional GUS) on YPD-ZEO-X-GLU plates” value in [6] is on record as “a subset of yeast expressing GUS-OF contain blue subclones”. Also, in the data set with Arabidopsis thaliana [7] (Arabidopsis seeds, continuous culture, from Table 2), the “concentration at which toxicity occurs” value was 10000 µM. Moreover, the Dead in the data set with Arabidopsis thaliana [7] (concentration 0.1, 10 days) worked out at 0 per 100 seeds; in the data set on Arabidopsis thaliana [7] (concentration 0.5, 10 days), 0 per 100 seeds; in the data set with Arabidopsis thaliana [7] (concentration 1.0, 10 days), 0 per 100 seeds; in the data set with Arabidopsis thaliana [7] (concentration 2.5, 10 days), 0 per 100 seeds; in the data set with Arabidopsis thaliana [7] (concentration 5.0, 10 days), 0 per 100 seeds; in the data set with Arabidopsis thaliana [7] (concentration 10, 10 days) it was 0 per 100 seeds. Moreover, the Dead turned out to be 0 per 100 seeds in the data set with Arabidopsis thaliana [7] (concentration 12.5, 10 days) and 0 per 100 seeds in the data set with Arabidopsis thaliana [7] (concentration 25, 10 days). Further, the Inter with Arabidopsis thaliana [7] (concentration 0.1, 10 days, stunted root or shoot formation scored intermediate) is on record as 0 per 100 seeds; in the data set with Arabidopsis thaliana [7] (concentration 0.5, 10 days, stunted root or shoot formation), 0 per 100 seeds; in the data set with Arabidopsis thaliana [7] (concentration 1.0, 10 days, stunted root or shoot formation) it was 0 per 100 seeds; in the data set with Arabidopsis thaliana [7] (concentration 50, 10 days, stunted root or shoot formation), 0 per 100 seeds. Also, the Healthy in the data set with Arabidopsis thaliana [7] (concentration 12.5, 10 days on MS phytagar) worked out at 0 per 100 seeds; with Arabidopsis thaliana [7] (concentration 25, 10 days on MS phytagar), 0 per 100 seeds; in the data set on Arabidopsis thaliana [7] (concentration 50, 10 days on MS phytagar), 0 per 100 seeds.

For `CCOS(C)(=O)=O` [EMS, ethyl methanesulfonate], in the data set on Arabidopsis thaliana [2], the “offspring with small light green appearance (altered phenotype)” value was “No plants with altered phenotypes were observed”. In the data set with Arabidopsis thaliana [2], the “phenotypically distinct plants among offspring at day 10” value is “no phenotypic difference was observed”. The “generation of β-galactosidase positive cells / MI and shifting of the polynucleotide tract in the pCAR-OF reporter” value in data set [3] is “did not result in MI and/or the shifting of the polynulceotide tract in the pCAR-OF reporter”. In addition, in data set [6], the “blue subclones (functional GUS) on YPD-ZEO-X-GLU plates” value is “none are seen”. Also, the “concentration at which toxicity occurs” value in the data set with Arabidopsis thaliana [7] (Arabidopsis thaliana, in vivo, 10 days) amounted to 250 µM. The Inter in the data set with Arabidopsis thaliana [7] (Arabidopsis thaliana, in vivo, 10 days, 0.1 mM) came out at 0 per 100 cells; in the data set with Arabidopsis thaliana [7] (setting [8]), 0 per 100 cells; in the data set with Arabidopsis thaliana [7] (setting [9]), 0 per 100 cells; in the data set on Arabidopsis thaliana [7] (setting [10]), 0 per 100 cells; in the data set on Arabidopsis thaliana [7] (setting [11]), 0 per 100 cells; with Arabidopsis thaliana [7] (setting [12]), 0 per 100 cells. Besides, in the data set on Arabidopsis thaliana [7] (setting [13]), the Inter stood at 0 per 100 cells. Also, the Healthy with Arabidopsis thaliana [7] (setting [8]), with Arabidopsis thaliana [7] (setting [9]), in the data set with Arabidopsis thaliana [7] (setting [10]), in the data set on Arabidopsis thaliana [7] (setting [11]), with Arabidopsis thaliana [7] (setting [12]) and with Arabidopsis thaliana [7] (setting [13]) was 0 per 100 cells throughout.

As for `COc1ccc2nc3cc(Cl)ccc3c(NCCCNCCCl)c2c1` [ICR191], the “mutation induction in MMR defective cell lines” value in the data set on MMR defective cell lines is recorded as “produce enhanced mutation rates in already MMR defective cell lines”.

The values above are taken from US8105836B2, “Chemical inhibitors of mismatch repair” (priority 2001, dated 2012).
